# Data from patent US20240277658A1, “NLRP3 ACTIVATORS FOR USE IN THE TREATMENT OF INFECTIOUS DISEASES OR CANCER BY ACTIVATING NLRP3 INFLAMMASOME” (ALBERT-LUDWIGS-UNIVERSITÄT FREIBURG, priority 2020, published 2024).
# “And” between values parts separate entries of the source, which are not always exact repeats. Equal entries are not always repeated. Where two headings read alike, the source gives them in different places.
# What was measured:
# NLRP3 inflammasome = target: T1, NLRP3 inflammasome (Mus musculus, UniProt Q8R4B8); assay: IL-1β release from LPS-primed BMDCs (ELISA) as readout of NLRP3 inflammasome activation; format: cell-based; details: for IL-1β: individual replicate values; for Average (% positive control): IL-1β
# T1 construct: endogenous in cells; host or cells: primary mouse bone marrow-derived dendritic cells (BMDCs), LPS-primed
# Procedure: (§1) This was tested in cell culture in several different in vitro assays classically used to investigate inflammasome activation. These include measuring inflammasome-dependent lytic cell death (pyroptosis) by detecting release of the cytosolic enzyme lactate dehydrogenase (LDH) using a commercial colorimetric assay and release of proinflammatory cytokines like IL-1β by enzyme-linked immunosorbent assay (ELISA), analyzing cleavage and activation of caspase-1 and IL-1β by immunoblotting and immunofluorescence imaging of ASC speck formation. Lytic cell death was determined via LDH release. Assay results for compounds are illustrated in the Tables below, wherein the concentration of the compounds tested had been 50 μM or as indicated in the table, and the concentration of the known activators has been tested with 5 μM of nigericin, 100 μM of each R837 and CL097. For classification of the activity of a given molecule, release of IL-1β was quantified as % of IL-1% of a respective control activator used for the experiment (highlighted in tables with bold letters). The compounds listes in Table 1 were classified into 4 groups depending on their ability to induce the NLRP3 inflammasome activation, assessed by % IL-1β release as compared to the positive control.
# (§2) Mouse bone marrow-derived dendritic cells (BMDCs) were isolated from femurs and tibias previously described (Gross, Olaf, 2012, “Measuring the inflammasome”, Methods in molecular biology, Clifton, N.J., 844, pp. 199-222.). In brief, tibias and femurs were carefully removed and put to sterile 70% ethanol for 1 minute. Using a 22-G needle attached to a 20 ml-syringe filled with sterile flushing medium, the bone marrow was pressed through the mesh of a […] cell strainer. The cells were spun down by centrifugation at 400×g, 4° C. for 5 minutes and red blood cells lysed by resuspension and incubation for 5 minutes at room temperature in RBC lysis buffer. 9 ml of flushing medium were added and cells were again spun down by centrifugation at 400×g, 4° C. for 5 minutes. Cells were then resuspended in BMDC medium (RPMI, 10% fetal bovine serum, 1% penicillin-streptomycin100 U/ml, 20 ng/ml recombinant murine GM-CSF), counted and plated at a density of 0.5×10^6 cells ml^−1 in 10 ml medium and incubated at 37° C., 5% CO2 in a humidified incubator. After 2 days, 10 ml of fresh medium were added to the cells and after 4 days, the medium was fully exchanged to 20 ml of fresh medium. The cells were allowed to differentiate for 6 to 8 days before usage.
# (§3) For canonical inflammasome activation BMDCs after 7-9 days of differentiation were harvested and counted with a Neubauer Chamber (Hecht Assistant) and the concentration was set to 1 Mio cells ml^−1. 100 μl cell suspension per well were seeded in 96-well plates. The cells were primed with 50 ng ml^−1 E. coli K12 ultra-pure LPS for 3 hours and subsequently treated with canonical inflammasome activators or experimental compounds for 3 hours if not indicated differently (incubation time FIG. 4D, 5, 7, 8, 11, 13-18: 3 h, FIG. 12: 4 h). Concentrations of the stimuli were as follows if not indicated differently: 5 μM nigericin, 100 μM imiquimod (also known as R837), 100 μM CL097, 100 μM R848, […] poly(dA:dT), 300 μg ml^−1 MSU. If an inhibitor was used before stimuli treatment, the inhibitor was added after 2.5 hours of priming and it was incubated for 30 minutes before inflammasome activation. Inhibitors were used as follows: 3 μM MCC950, 45 mM KCl, 30 μM ebselen (2-Phenyl-1,2-benzoselenazol-3-one), 5 μM cytochalasin D (see FIGS. 8, 11, 12 and 17).
# (§4) All inflammasome stimulations were performed in three technical replicates for each condition. […]
# BMDCs = assay: LDH release (lytic cell death, pyroptosis) from LPS-primed BMDCs; format: cell-based, mouse; details: for cytotoxicity at 18.75 µM / cytotoxicity at 37.5 µM / cytotoxicity at 75 µM / cytotoxicity at 25 µM / cytotoxicity at 50 µM: Mus musculus, BMDC; for Average (% positive control): LDH release; for cytotoxicity at 25 µM / cytotoxicity at 50 µM: AH series table
# Procedure: as §1, §2, §3, §4
# [1] = 25 μM, positive control EN22 10 μM
# [2] = 50 μM, positive control EN22 10 μM
# [3] = 75 μM, positive control EN22 10 μM
# [4] = 25 μM, read-out: Average LDH release (% of max.)
# [5] = 25 μM, individual replicate values, read-out: LDH release (% of max.)
# [6] = 50 μM, read-out: Average LDH release (% of max.)
# [7] = 50 μM, individual replicate values, read-out: LDH release (% of max.)
# [8] = 75 μM, individual replicate values, read-out: LDH release (% of max.)
# [9] = 75 μM, read-out: Average LDH release (% of max.)
# T1 sequence (Q8R4B8 whole entry): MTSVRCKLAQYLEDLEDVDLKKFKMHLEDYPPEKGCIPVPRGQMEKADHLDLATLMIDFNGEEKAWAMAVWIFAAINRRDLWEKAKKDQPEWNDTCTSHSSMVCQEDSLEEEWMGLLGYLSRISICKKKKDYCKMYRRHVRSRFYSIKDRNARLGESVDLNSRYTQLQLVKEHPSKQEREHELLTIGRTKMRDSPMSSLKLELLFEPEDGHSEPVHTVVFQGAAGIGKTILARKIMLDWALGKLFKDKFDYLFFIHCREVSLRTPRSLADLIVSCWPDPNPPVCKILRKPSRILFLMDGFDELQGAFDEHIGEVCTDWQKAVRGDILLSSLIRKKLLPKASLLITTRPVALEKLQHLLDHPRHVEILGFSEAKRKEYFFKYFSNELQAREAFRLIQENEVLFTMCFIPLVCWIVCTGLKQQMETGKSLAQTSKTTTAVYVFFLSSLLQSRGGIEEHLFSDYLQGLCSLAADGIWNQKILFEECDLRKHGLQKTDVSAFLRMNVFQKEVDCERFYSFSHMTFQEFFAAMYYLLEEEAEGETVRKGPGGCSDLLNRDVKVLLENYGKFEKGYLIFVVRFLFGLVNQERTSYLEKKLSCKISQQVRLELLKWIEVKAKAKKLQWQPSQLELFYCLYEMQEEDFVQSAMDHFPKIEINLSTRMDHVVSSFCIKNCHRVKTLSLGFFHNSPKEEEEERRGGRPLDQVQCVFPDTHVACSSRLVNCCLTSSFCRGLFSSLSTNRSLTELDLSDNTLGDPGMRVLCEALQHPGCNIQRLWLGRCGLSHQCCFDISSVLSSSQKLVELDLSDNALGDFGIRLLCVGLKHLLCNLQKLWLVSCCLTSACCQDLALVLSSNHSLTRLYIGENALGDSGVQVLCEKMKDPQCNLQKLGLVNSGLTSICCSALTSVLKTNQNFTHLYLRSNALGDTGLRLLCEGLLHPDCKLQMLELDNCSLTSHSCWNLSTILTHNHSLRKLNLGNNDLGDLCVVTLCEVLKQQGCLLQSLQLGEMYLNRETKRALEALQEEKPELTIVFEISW
SMILES,"Average IL-1β (NLRP3 inflammasome; 25 μM, AH series table)","IL-1β (NLRP3 inflammasome; 25 μM, AH series table)","Average IL-1β (NLRP3 inflammasome; 50 μM, AH series table) [ng/mL]","IL-1β (NLRP3 inflammasome; 50 μM, AH series table)","Average IL-1β (NLRP3 inflammasome; 75 μM, AH series table) [ng/mL]","IL-1β (NLRP3 inflammasome; 75 μM, AH series table)",Average (% positive control) (NLRP3 inflammasome; [1]),Average (% positive control) (NLRP3 inflammasome; [2]),Average (% positive control) (NLRP3 inflammasome; [3]),Average (% positive control) (BMDCs; [1]),Average (% positive control) (BMDCs; [2]),Average (% positive control) (BMDCs; [3]),cytotoxicity at 25 µM (BMDCs; [4]) [%],cytotoxicity at 25 µM (BMDCs; [5]) [%],cytotoxicity at 50 µM (BMDCs; [6]) [%],cytotoxicity at 50 µM (BMDCs; [7]) [%],cytotoxicity at 75 µM (BMDCs; [8]) [%],cytotoxicity at 75 µM (BMDCs; [9]) [%],also measured
"O=C(Nc1ccccc1Cl)Nc1ccc([N+](=O)[O-])cc1Cl [A.C2, 3-(2-chloro-4-nitrophen-yl)-1-(2-chlorophenyl)-urea]",,,,,,,,,,,,,,,,,,,"Average IL-1β (NLRP3 inflammasome; 18.75 μM): 0.118 ng/mL; IL-1β (NLRP3 inflammasome; 18.75 μM): 0.128 ng/mL and 0.116 ng/mL and 0.111 ng/mL; Average IL-1β (NLRP3 inflammasome; 37.5 μM): 0.361 ng/mL; IL-1β (NLRP3 inflammasome; 37.5 μM): 0.377 ng/ml and 0.353 ng/ml (2×); Average IL-1β (NLRP3 inflammasome; 75 μM): 0.525 ng/mL; IL-1β (NLRP3 inflammasome; 75 μM): 0.459 ng/mL and 0.546 ng/mL and 0.571 ng/mL; Average (% positive control) (NLRP3 inflammasome; 18.75 μM, positive control EN22 18.75 μM): 1.870 % positive control; Average (% positive control) (NLRP3 inflammasome; 37.5 μM, positive control EN22 18.75 μM): 5.712 % positive control; Average (% positive control) (NLRP3 inflammasome; 75 μM, positive control EN22 18.75 μM): 8.308 % positive control; cytotoxicity at 18.75 µM (BMDCs; section 1.4, 18.75 μM, read-out: Average LDH release (% of max.)): 17.8%; cytotoxicity at 37.5 µM (BMDCs; section 1.4, 37.5 μM, read-out: Average LDH release (% of max.)): 45.7%; cytotoxicity at 75 µM (BMDCs; section 1.4, 75 μM, read-out: Average LDH release (% of max.)): 75.8%; cytotoxicity at 18.75 µM (BMDCs; section 1.4, single replicates, 18.75 μM, read-out: LDH release (% of max.)): 18.4%; cytotoxicity at 37.5 µM (BMDCs; section 1.4, single replicates, 37.5 μM, read-out: LDH release (% of max.)): 46.6%; cytotoxicity at 75 µM (BMDCs; section 1.4, single replicates, 75 μM, read-out: LDH release (% of max.)): 77.1%; Average (% positive control) (BMDCs; section 1.4, 18.75 μM, positive control EN22 18.75 μM): 24.912 % positive control; Average (% positive control) (BMDCs; section 1.4, 37.5 μM, positive control EN22 18.75 μM): 64.016 % positive control; Average (% positive control) (BMDCs; section 1.4, 75 μM, positive control EN22 18.75 μM): 106.244 % positive control"
"O=C(Nc1cc(Cl)cc(Cl)c1)Nc1ccc([N+](=O)[O-])cc1Cl [AH1, 1-(2-chloro-4-nitrophenyl)-3-(3,5-dichlorophenyl) urea]",1.177 ng/mL,1.140 ng/mL and 1.156 ng/mL and 1.234 ng/mL,1.578,1.533 ng/mL and 1.609 ng/mL and 1.592 ng/mL,1.533,1.619 ng/mL and 1.382 ng/mL and 1.598 ng/mL,11.766 % positive control,15.776,15.328,53.499,74.390,78.340,41.1,42.1,57.1,55.7,60.7,60.2,
"O=[N+]([O-])c1ccc(NC(=S)Nc2cccc(Cl)c2)c(Cl)c1 [AH2, 1-(2-chloro-4-nitrophenyl)-3-(3-chlorophenyl) thiourea]",0.194 ng/mL and 0.251 ng/mL,0.197 ng/mL and 0.186 ng/mL and 0.200 ng/mL and 0.280 ng/mL and 0.232 ng/mL and 0.243 ng/mL,,,0.187,0.176 ng/ml and 0.193 ng/ml (2×),1.942 % positive control and 2.514 % positive control,,1.872,29.680,28.819,33.532,22.8,23.9,22.1,22.8,25.1,25.8,
"Cc1c(F)cccc1NC(=O)Nc1cccc(Cl)c1 [AH3, 1-(3-chlorophenyl)-3-(3-fluoro-2-methylphenyl) urea]",0.588 ng/mL,0.540 ng/mL and 0.630 ng/mL and 0.593 ng/mL,1.519,1.267 ng/mL and 1.615 ng/mL and 1.675 ng/mL,2.224,2.288 ng/mL and 2.351 ng/mL and 2.032 ng/mL,5.875 % positive control,15.193,22.240,16.733,29.496,44.370,12.9,12.8,22.7,22.2,34.6,34.1,
